Measured values: US20240252668A1, “ANTIBODY DRUG CONJUGATES AND METHODS FOR MAKING THEREOF” (Novartis AG, priority 2021, published 2024)
Where two headings read alike, the source gives them in different places. Starred links: 1 amine or outer side, 2 acyl side, 3 side chain; linkers in the order of their positions; H or OH if unused. Positions of bridges follow the written chain, without caps; N, C: chain ends. Non-standard residues stand in square brackets, D forms with d. Residues, ends and D or L forms follow the SMILES beside them. ξ: configuration not given here. *: point of attachment. Leu(3R-OH,Nα-propionyl) = CCC(=O)N[C@H](C(=O)*)[C@H](O)C(C)C; X1 = CC(C)[C@@H](O[*:3])[C@H](N[*:1])C(=O)[*:2]; X5 = CSC[C@@H](O[*:3])[C@H](N[*:1])C(=O)[*:2]; X3 = CC(C)C(O[*:3])C(N[*:1])C(=O)[*:2]; X4 = CCC(=O)N[C@H](C(=O)*)[C@H](O)CSC; ξLeu(3ξ-OH) = CC(C)C(O)C(N)C(=O)O; NMeT = CN[CH](C(=O)O)[CH](C)O; dPhLac = O=C(O)[C@H](O)Cc1ccccc1; PhLac = O=C(O)[CH](O)Cc1ccccc1; NMeA = CN[CH](C)C(=O)O; NMeDha = C=C(NC)C(=O)O

Assays:
[1] = system: SK-MEL-30 skin melanoma cell line (heterozygous NRAS Q61K); experiment: Cell proliferation assay (resazurin cell viability), SK-MEL-30 cell line; format: cell-based
Source text: (§1) Cell Proliferation Assays with Chromodepsins (compounds (A1) and 2-15): Cell line descriptions: 92.1—uveal melanoma cell line, derived from primary tumor, harboring heterozygous GNAQ Q209L mutation. Purchased from Sigma Aldrich. MP41 (CRL-3297) -uveal melanoma cell line, derived from primary tumor, harboring heterozygous GNA11 Q209L mutation. Purchased from ATCC. A375—skin melanoma cell line, harboring homozygous BRAF V600E mutation. Origin: Cancer Cell Line Encyclopedia (CCLE). SK-MEL-30—skin melanoma cell line, harboring heterozygous NRAS Q61K mutation. Origin: CCLE.
(§2) Cells were cultured in 96-well plates in a total volume of 100 μL at 37° C., 5% CO2 and 95% relative humidity. All cell lines were cultured in RPMI Medium (RPMI 1640 w/o L-glutamine, Bioconcept ref. 1-41F01-I) except A375, DMEM medium (DMEM high glucose (4.5 g/L), Bioconcept, ref. 1-26F01-I), and supplemented with 10% FCS (Bioconcept, ref. 2-01F30-I). Two to three thousand cells were seeded in 96-well plates per well the night before they were treated with compounds (concentration range: from 260 nM to 0.036 nM with ⅓ dilution steps; for 7 the concentration range was increased from 10000 nM to 1.52 nM with ⅓ dilution steps). Cell viability was measured by addition of 10 ul of resazurin per well after 96 hours of treatment. Results were analyzed and plotted using GraphPad Prism 9.0.1.

[2] = EPSA determination by supercritical fluid chromatography; format: physicochemical; details: for EPSA: modified EPSA method, SFC
Method: […] by supercritical fluid chromatography: Compounds (A1) and 2-15 were tested by supercritical fluid chromatography (SFC) to determine their ESAPSA values. Samples were analyzed using a Chirex 3014 column ([…], 3×100 mm column, 100 Å pore size; Phenomenex. The starting conditions were 5% methanol containing 20 mM ammonium formate and 95% scCO2. The gradient was increased linearly to 60% methanol containing 20 mM ammonium formate in 4.5 min.

[3] = system: MP41 uveal melanoma cell line (heterozygous GNA11 Q209L); experiment: Cell proliferation assay (resazurin cell viability), MP41 cell line; format: cell-based
Source text: as §1, §2

MDCK-LE monolayers = experiment: Cell-based transwell assay with MDCK-low efflux monolayers (passive permeability); format: in vitro ADME; details: for % Fraction absorbed / % Recovery / Papp A − B: MDCK-LE monolayers
Method: Cell-based transwell assays with MDCK-low efflux monolayers: Compounds (A1) and 2-15 were tested in MDCK cell sub-clones with low effluxt ransporter activity (MDCK-LE) in order to determine their passive permeability. The incubations were performed at a contract research organization as described previously.

[4] = system: 92.1 and MP41 cell lines (GNAQ/GNA11 mutant uveal melanoma); experiment: Cell proliferation assays, potency ranking over both uveal melanoma lines; format: cell-based; details: 92.1 and MP41 cell lines
Source text: The selective antiproliferative profile of the chromodepsins against GNAQ/GNA11 mutant cell lines is confirmed by the lack of activity against the A375 and SK MEL 30 cell lines that are independent from GNAQ/GNA11 signaling. The potency ranking using the 92.1 and MP41 cell lines is in good agreement with the previously SAR studies. […] These findings are in line with a recent report from Voss et al., highlighting the importance of the “lipophilic anchors” of compound (A1) at the residues varied in compounds 2 and 3, in context of binding kinetics and prolonged residence time on the target proteins. The retained potency of compound 4 indicates a promising exit vector for potential synthetic or biosynthetic modifications of the scaffold. […] The linearized depsipeptides compounds 5-7 lack any antiproliferative activity. In this experimental setup, the cellular permeability of the compounds was a crucial factor contributing to the observed antiproliferative potency. Therefore, all compounds were characterized in a low efflux MCDK assay and determined their exposed polar surface areas (EPSA) in order to assess their passive cellular permeabilities. All macrocyclic chromodepsins that feature the N acyl Hle side chain show similar results concerning their % fraction absorbed (% FA; average ˜60% FA+20%) and EPSA values.
as §1, §2

[5] = system: A375 skin melanoma cell line (homozygous BRAF V600E); experiment: Cell proliferation assay (resazurin cell viability), A375 cell line; format: cell-based
Source text: as §1, §2

[6] = system: 92.1 uveal melanoma cell line (heterozygous GNAQ Q209L); experiment: Cell proliferation assay (resazurin cell viability), 92.1 cell line; format: cell-based
Source text: as §1, §2

Gαq proteins = details: as has been reported; dynamic mass redistribution; cited from earlier work
[7] = SK-MEL-30 (GNAQ/11 wild type), 96 hours of treatment, read-out: GI50 by cell line, SK-MEL-30
[8] = SK-MEL-30 cell line, average of Rep. 1 and 2, read-out: GI50 SK-MEL-30 Average
[9] = SK-MEL-30 cell line, replicate 1, read-out: GI50 SK-MEL-30 Rep. 1
[10] = SK-MEL-30 cell line, replicate 2, read-out: GI50 SK-MEL-30 Rep. 2
[11] = MP41 (GNA11 Q209L), 96 hours of treatment, read-out: GI50 by cell line, MP41
[12] = MP41 cell line, average of Rep. 1 and 2, read-out: GI50 MP41 Average
[13] = MP41 cell line, replicate 1, read-out: GI50 MP41 Rep. 1
[14] = MP41 cell line, replicate 2, read-out: GI50 MP41 Rep. 2
[15] = A375 (GNAQ/11 wild type), 96 hours of treatment, read-out: GI50 by cell line, A375
[16] = A375 cell line, average of Rep. 1 and 2, read-out: GI50 A375 Average
[17] = A375 cell line, replicate 1, read-out: GI50 A375 Rep. 1
[18] = A375 cell line, replicate 2, read-out: GI50 A375 Rep. 2
[19] = 92.1 (GNAQ Q209L), 96 hours of treatment, read-out: GI50 by cell line, 92.1
[20] = 92.1 cell line, average of Rep. 1 and 2, read-out: GI50 92.1 Average
[21] = 92.1 cell line, replicate 1, read-out: GI50 92.1 Rep. 1
[22] = 92.1 cell line, replicate 2, read-out: GI50 92.1 Rep. 2
[23] = versus macrocyclic chromodepsins with N-acyl-Hle side chain

Row | Structure (SMILES) | GI50 [1, 7] | GI50 [1, 8] | GI50 [1, 9] | GI50 [1, 10] | EPSA [2] | GI50 [3, 11] | GI50 [3, 12] | GI50 [3, 13] | GI50 [3, 14] | % Fraction absorbed (MDCK-LE monolayers) | % Recovery (MDCK-LE monolayers) | Papp A − B (MDCK-LE monolayers) | loss of potency compared to compound (A1) (growth inhibition) [4] | GI50 [5, 15] | GI50 [5, 16] | GI50 [5, 17] | GI50 [5, 18] | GI50 [6, 19] | GI50 [6, 20] | GI50 [6, 21] | further results
1 | C=C1C(=O)N[C@@H](C)C(=O)N(C)[C@@H](C)C(=O)N[C@@H]([C@@H](CSC)OC(=O)[C@@H](NC(=O)CC)[C@H](O)C(C)C)C(=O)N(C)[C@@H]([C@@H](C)OC)C(=O)O[C@H](C(C)C)[C@H](NC(C)=O)C(=O)O[C@H](Cc2ccccc2)C(=O)N1C [Compound 3] (Ac-[X1][dPhLac][NMeDha]A[NMeA][X5](Leu(3R-OH,Nα-propionyl))[NMeT](Me); ester 1-C) | > 260 nM | > 260 nM | > 260 nM | > 260 nM | 98 A^2 | 4 nM | 4 nM | 3.12 nM | 4.89 nM | 86.1% | 90% | 12.2 ×10⁻⁶ cm/s | ~15 fold | > 260 nM | > 260 nM | > 260 nM | > 260 nM | 10.4 nM | 10.4 nM | 9.05 nM | GI50 [6, 22]: 11.7 nM
2 | C=C1C(=O)NC(C)C(=O)N(C)C(C)C(=O)NC(C(O)C(C)C)C(=O)N(C)C(C(C)OC)C(=O)OC(C(C)C)C(NC(C)=O)C(=O)OC(Cc2ccccc2)C(=O)N1C (stereo not drawn) [Compound 12] (Ac-[X3][PhLac][NMeDha]A[NMeA][ξLeu(3ξ-OH)][NMeT](Me); ester 1-C; configuration not given here) | > 10000 nM | > 10000 nM | > 10000 nM | > 10000 nM | 106 A^2 | 1180 nM | 1180 nM | 994 nM | 1350 nM | 9.9% | 83% | 0.55 ×10⁻⁶ cm/s | > 3.000 fold | > 10000 nM | > 10000 nM | > 10000 nM | > 10000 nM | 1740 nM | 1740 nM | 1130 nM | change in EPSA (in words) [2, 23]: slight changes; fold change compared to compound (A1), inhibition of Gαq proteins (Gαq proteins): 16 fold; reduction in % FA (MDCK-LE monolayers; [23]): ~5 fold; GI50 [6, 22]: 2350 nM
3 | C=C1C(=O)N[C@@H](C)C(=O)N(C)[C@@H](C)C(=O)N[C@@H]([C@H](OC(=O)[C@@H](NC(=O)CC)[C@H](O)CSC)C(C)C)C(=O)N(C)[C@@H]([C@@H](C)OC)C(=O)O[C@H](C(C)C)[C@H](NC(C)=O)C(=O)O[C@H](Cc2ccccc2)C(=O)N1C [Compound 4] (Ac-[X1][dPhLac][NMeDha]A[NMeA][X1](X4)[NMeT](Me); ester 1-C) | > 260 nM | > 260 nM | > 260 nM | > 260 nM | 104 A^2 | 0.5 nM | 0.5 nM | 0.45 nM | 0.53 nM | 32.5% | 75% | 1.71 ×10⁻⁶ cm/s | two-fold | > 260 nM | > 260 nM | > 260 nM | > 260 nM | 1.2 nM | 1.2 nM | 0.91 nM | GI50 [6, 22]: 1.5 nM
